{"source": "patent US11654119B2", "about": "“Bioavailable curcumin nanoparticles and methods of making” (NUtech Ventures, priority 2018, dated 2023)", "key": {"[1]": {"assay": "Solubility of curcumin in ethanol", "type": "physicochemical", "experimental": "Impregnation of curcumin was conducted during the solvent exchange step. Excess curcumin was mixed with ethanol at room temperature (21° C.) and the undissolved curcumin was removed by filtration through a 0.45 μm pore-size filter. […] Afterwards, curcumin impregnated alcogels were dried using the same SC-CO2 drying conditions. Moreover, curcumin impregnation was investigated at 60° C., where higher solubility of curcumin in ethanol was obtained. Curcumin impregnated NSAs were called CUR-NSA-60° C. or CUR-NSA-RT depending on the impregnation temperature of 60° C. or room temperature (RT), respectively. Curcumin impregnated NSAs were stored in the freezer at −18° C. until characterized.\nImpregnation capacity of the Curcumin-NSA-RT, where impregnation was performed at room temperature (21° C.), was 14.4 mg curcumin/g NSA (FIG. 5). When temperature of the impregnation increased to 60° C. […] Impregnation capacity was basically based on the solubility of curcumin in ethanol. […] The reason for a drastic increase in the impregnation capacity at 60° C. was the crystallization of curcumin in the saturated ethanolic curcumin solution on the surface of the NSA due to temperature drop to 40° C. during SC-CO2 drying. Crystallization from ethanol before the supercritical conditions reached led to the formation of long curcumin crystals (data not shown) which impacted the bioaccessibility of curcumin after simulated digestion (FIG. 10)."}, "[2]": {"details": "in humans; cited from earlier work"}, "[3]": {"assay": "Plasma CUR concentration over time after administration (bioavailability in rats)", "type": "in vivo", "details": "rat, 0-90 minutes after administration, read-out: maximum concentration of CUR in the plasma (Cmax)", "from_the_text": "FIG. 12 depicts the bioavailability of curcumin (CUR) impregnated in the nanoporous starch aerogels in rats as analyzed in Example 2.\nThe plasma CUR concentration was monitored over time after administration."}, "[4]": {"details": "10 MPa and 40° C.; cited from earlier work"}, "[5]": {"assay": "Simulated gastrointestinal digestion (oral, gastric, intestinal); bioaccessible fraction", "type": "in vitro ADME", "details": "after simulated digestion", "protocol": "Gastrointestinal digestion of the samples was simulated adopting the method described by Minekus et al., 2014, Food & Function, 5(6), 1113-1124. Gastrointestinal digestion consisted of a sequential oral, gastric and intestinal digestion. Simulated salivary fluid (SSF), simulated gastric fluid (SGF) and simulated intestinal fluid (SIF) were prepared using a method reported previously (Minekus et al., 2014). […] The experiments were performed in 50 mL Erlenmeyer flasks. All digestion experiments were carried out in triplicate.\nFirst, the sample (0.25 g) and SSF electrolyte stock solution (3.5 mL) were added into the flask. Then, 0.5 mL of α-amylase solution (750 U/mL) was included to have a final mixture with 75 U/mL. Subsequently, 25 μL of 0.3 M CaCl2 and 0.975 mL of deionized water were added. Finally, pH of the mixture was adjusted to pH 7.0 and the mixture was agitated in a shaking water bath (Precision SWB 27, Thermo Fisher Scientific, NH, USA) for 30 sec at 37° C. with a mixing rate of 150 rpm (Mennah-Govela & Bornhorst, 2016; Minekus et al., 2014).\nAfter the oral digestion, oral bolus (5 mL) was mixed with SGF electrolyte stock solution (3.25 mL, pH 3.0) and the pH was adjusted to 3.0 using 1 M HCl (75 μL). […] The pH of the mixture was monitored and kept at pH 3.0 using 1 M HCl. […]"}}}
{"smiles": "COc1cc(/C=C/C(=O)CC(=O)/C=C/c2ccc(O)c(OC)c2)ccc1O", "note": "[crude curcumin, Curcumin (diferuloylmethane)]", "values": [{"measurement": "increase in the solubility of curcumin in ethanol", "setting": "[1]; 21 to 60° C.", "value": 3.9, "unit": "fold"}, {"measurement": "solubility of curcumin in ethanol", "setting": "[1]; 21° C.", "value": "4.4±0.2", "unit": "mg curcumin/mL ethanol"}, {"measurement": "solubility of curcumin in ethanol", "setting": "[1]; 60° C.", "value": "17.2±0.3", "unit": "mg curcumin/mL ethanol"}, {"measurement": "bioavailability", "setting": "[2]", "value": "~1", "unit": "%"}, {"measurement": "Cmax", "setting": "[3]", "value": 500, "unit": "nM"}, {"measurement": "solubility of curcumin in SC-CO2", "setting": "[4]", "value": "~0.4", "unit": "ng/mL"}, {"measurement": "concentration of curcumin in the bioaccessible fraction", "setting": "[5]", "value": 3000, "unit": "ng/mL"}]}
